Assays:
Assay type in all cases: functional, cell-based
[1] = molecular target: ATP-dependent translocase ABCB1 (Rattus norvegicus, UniProt P43245); test: TP_TRANSPORTER: Luciferase assay in H35 hepatoma cells
[2] = molecular target: Multidrug resistance protein 1a (Rattus norvegicus) (UniProt Q6PSM0); test: TP_TRANSPORTER: Western blot, H35 hepatoma cells
[3] = molecular target: Multidrug resistance protein 1a (Rattus norvegicus) (UniProt Q6PSM0); test: TP_TRANSPORTER: Northern blot from H35 hepatoma cells

Sequence of ATP-dependent translocase ABCB1 (P43245 whole entry): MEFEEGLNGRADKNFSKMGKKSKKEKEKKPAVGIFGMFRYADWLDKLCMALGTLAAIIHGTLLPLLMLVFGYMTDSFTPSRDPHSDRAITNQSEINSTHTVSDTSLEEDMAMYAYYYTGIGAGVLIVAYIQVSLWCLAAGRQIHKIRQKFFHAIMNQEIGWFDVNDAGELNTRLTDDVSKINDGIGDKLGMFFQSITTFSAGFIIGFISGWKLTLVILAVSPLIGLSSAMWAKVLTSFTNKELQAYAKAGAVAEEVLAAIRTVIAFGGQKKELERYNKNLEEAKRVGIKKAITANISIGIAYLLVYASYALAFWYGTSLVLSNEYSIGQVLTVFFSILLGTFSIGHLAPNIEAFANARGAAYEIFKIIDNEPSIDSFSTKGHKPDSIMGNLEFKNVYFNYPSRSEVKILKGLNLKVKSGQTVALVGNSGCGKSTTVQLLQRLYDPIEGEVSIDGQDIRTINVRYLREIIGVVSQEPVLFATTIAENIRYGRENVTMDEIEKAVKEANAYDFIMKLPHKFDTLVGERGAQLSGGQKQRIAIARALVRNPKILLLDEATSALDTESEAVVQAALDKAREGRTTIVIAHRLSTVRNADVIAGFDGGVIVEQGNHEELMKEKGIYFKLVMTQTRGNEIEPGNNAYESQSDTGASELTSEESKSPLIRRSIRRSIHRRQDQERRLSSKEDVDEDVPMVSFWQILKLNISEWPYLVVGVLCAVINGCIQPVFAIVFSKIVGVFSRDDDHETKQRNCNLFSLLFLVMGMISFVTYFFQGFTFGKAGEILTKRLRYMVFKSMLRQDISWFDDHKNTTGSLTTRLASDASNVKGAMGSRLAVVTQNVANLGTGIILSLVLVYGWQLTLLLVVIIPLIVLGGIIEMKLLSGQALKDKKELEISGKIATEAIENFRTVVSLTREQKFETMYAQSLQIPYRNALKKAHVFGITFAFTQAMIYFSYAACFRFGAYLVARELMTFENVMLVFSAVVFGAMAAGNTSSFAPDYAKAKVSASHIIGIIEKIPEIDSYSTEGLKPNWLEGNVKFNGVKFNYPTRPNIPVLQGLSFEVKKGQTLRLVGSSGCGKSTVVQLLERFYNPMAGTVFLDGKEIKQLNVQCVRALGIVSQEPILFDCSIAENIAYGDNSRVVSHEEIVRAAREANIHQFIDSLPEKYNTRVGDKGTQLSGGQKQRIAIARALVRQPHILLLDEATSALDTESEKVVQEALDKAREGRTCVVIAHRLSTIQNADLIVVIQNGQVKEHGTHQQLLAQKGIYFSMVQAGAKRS
Sequence of Multidrug resistance protein 1a (Rattus norvegicus) (Q6PSM0 as listed by the source): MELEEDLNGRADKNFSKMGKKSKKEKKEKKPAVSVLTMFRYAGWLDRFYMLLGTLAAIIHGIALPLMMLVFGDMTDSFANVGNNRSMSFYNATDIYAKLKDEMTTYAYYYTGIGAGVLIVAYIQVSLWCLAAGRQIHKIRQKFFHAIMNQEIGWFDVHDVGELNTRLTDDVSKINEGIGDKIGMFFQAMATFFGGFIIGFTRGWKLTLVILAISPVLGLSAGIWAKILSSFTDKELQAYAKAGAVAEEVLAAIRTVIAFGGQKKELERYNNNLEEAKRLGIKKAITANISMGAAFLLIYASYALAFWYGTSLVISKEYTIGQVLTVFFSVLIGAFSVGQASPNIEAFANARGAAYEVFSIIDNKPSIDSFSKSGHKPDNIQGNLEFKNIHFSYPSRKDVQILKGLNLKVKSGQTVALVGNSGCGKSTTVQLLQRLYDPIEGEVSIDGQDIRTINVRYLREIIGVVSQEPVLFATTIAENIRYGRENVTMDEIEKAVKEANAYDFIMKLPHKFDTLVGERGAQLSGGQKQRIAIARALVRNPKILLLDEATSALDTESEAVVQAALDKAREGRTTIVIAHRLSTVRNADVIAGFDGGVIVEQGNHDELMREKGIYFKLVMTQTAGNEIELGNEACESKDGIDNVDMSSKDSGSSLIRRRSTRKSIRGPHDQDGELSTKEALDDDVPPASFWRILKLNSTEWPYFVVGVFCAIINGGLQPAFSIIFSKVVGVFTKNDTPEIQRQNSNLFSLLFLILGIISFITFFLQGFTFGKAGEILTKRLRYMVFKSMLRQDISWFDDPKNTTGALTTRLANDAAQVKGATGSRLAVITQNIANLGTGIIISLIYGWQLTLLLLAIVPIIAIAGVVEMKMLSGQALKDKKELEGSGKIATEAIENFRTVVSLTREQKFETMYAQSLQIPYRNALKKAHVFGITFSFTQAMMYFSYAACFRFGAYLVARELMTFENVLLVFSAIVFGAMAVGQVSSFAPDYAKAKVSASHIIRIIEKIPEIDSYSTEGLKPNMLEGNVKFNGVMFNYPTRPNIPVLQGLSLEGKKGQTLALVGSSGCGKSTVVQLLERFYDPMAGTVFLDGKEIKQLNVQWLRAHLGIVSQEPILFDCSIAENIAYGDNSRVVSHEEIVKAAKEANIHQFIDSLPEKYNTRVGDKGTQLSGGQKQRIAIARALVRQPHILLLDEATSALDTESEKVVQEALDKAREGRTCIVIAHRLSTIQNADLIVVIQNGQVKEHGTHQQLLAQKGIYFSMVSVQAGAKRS

SMILES | Activity [1] | Activity [2] | Activity [3]
CCCN1CCC[C@@H]2Cc3n[nH]cc3C[C@H]21 [QUINPIROLE] | inducer [+] | – | –
CCCN1CCc2cccc3c2[C@H]1Cc1ccc(O)c(O)c1-3.Cl | inducer [+] | – | –
CC(C)C[C@H]1C(=O)N2CCC[C@H]2[C@]2(O)O[C@](NC(=O)[C@@H]3C=C4c5cccc6[nH]c(Br)c(c56)C[C@H]4N(C)C3)(C(C)C)C(=O)N12 | – | inducer [+] | inducer [+]

Source: ChEMBL document CHEMBL2073896, “Bromocriptine transcriptionally activates the multidrug resistance gene (pgp2/mdr1b) by a novel pathway” (J Biol Chem, 1997)
